Key:
[1] = molecular target: Human carbonic anhydrase II (hCA-II) (Homo sapiens (Human), UniProt P00918); test: Human carbonic anhydrase-II inhibition assay (absorbance, 4-NPA substrate); format: biochemical; conditions: hCA II 8 nM, 4-NPA 2.5 mM, absorbance 340 nm; read-out: CA-II IC50
Experimental: Human Carbonic Anhydrase-II Inhibition Assay
Then 30 μL of 16 nM hCA II solution was added (8 nM final concentration), mixed five times. 30 μL of 4-NPA substrate solution was added (2.5 mM final concentration), mixed five times.

human ATX = human ATX (Homo sapiens (Human), UniProt Q13822); test: Human ATX enzyme inhibition assay (fluorescence quenching, MR121 substrate); format: biochemical; conditions: human His-tagged ATX 30 nM, MR121 substrate 1 μM
Experimental: Production of Human Full Length ATX, with and without His Tag
Autotaxin (ATX-ENPP2) cloning: cDNA was prepared from commercial human hematopoietic cells total RNA and used as template in overlapping PCR to generate a full length human ENPP2 ORF with or without a 3′-6× His tag. These full length inserts were cloned into the pcDNA3.1V5-His TOPO (Invitrogen) vector. The DNA sequences of several single clones were verified. The DNA from a correct full length clone was used to transfect Hek293 cells for verification of protein expression. The sequence of the encoded ENPP2 conforms to Swissprot entry Q13822, with or without the additional C-terminal 6× His tag.
ATX Fermentation: Recombinant protein was produced by large-scale transient transfection in 20 L controlled stirred tank bioreactors (Sartorius). During cell growth and transfection, temperature, stirrer speed, pH and dissolved oxygen concentration were maintained at 37° C., 120 rpm, 7.1 and 30% DO, respectively. FreeStyle 293-F cells (Invitrogen) were cultivated in suspension in FreeStyle 293 medium (Invitrogen) and transfected at ca. 1-1.5×10E6 cells/mL with above plasmid DNAs using X-tremeGENE Ro-1539 (commercial product, Roche Diagnostics) as complexing agent. Cells were fed a concentrated nutrient solution (J Immunol Methods 194 (1996), 19, 1-199 (page 193)) and induced by sodium butyrate (2 mM) at 72 h post-transfection and harvested at 96 h post-transfection. Expression was analyzed by Western Blot, enzymatic assay and/or analytical IMAC chromatography. After cooling the cell suspension to 4° C. in a flow-through heat exchanger, cell separation and sterile filtration of supernatant was performed by filtration through Zeta Plus 60M02 E16 (Cuno) and Sartopore 2 XLG (Sartorius) filter units. The supernatant was stored at 4° C. prior to purification.
ATX Purification: 20 liter of culture supernatant were conditioned for ultrafiltration by adding Brij 35 to a final concentration of 0.02% and by adjusting the pH to 7.0 using 1 M HCl. Then the supernatant was first microfiltred through a 0.2 µm Ultran-Pilot Open Channel PES filter (Whatman) and afterwards concentrated to 1 liter through an Ultran-Pilot Screen Channel PES filter with 30 kDa MWCO (Whatman). Prior to IMAC chromatography, NiSO4 was added to a final concentration of 1 mM. […] The column was washed stepwise with the same buffer containing 20 mM, 40 mM and 50 mM imidazole, respectively. The protein was subsequently eluted using a linear gradient to 0.5 M imidazole in 15 column volumes. ATX containing fractions were pooled and concentrated using an Amicon cell equipped with a 30 kDa PES filter membrane. […] Final yield of protein after purification was 5-10 mg ATX per liter of culture supernatant. The protein was stored at −80° C.
Human ATX Enzyme Inhibition Assay
Test compounds (10 mM stock in DMSO, 8 μL) were obtained in 384 well sample plates (Corning Costar #3655) and diluted with 8 μL DMSO. […] Then, 15 μL of 41.7 nM ATX solution was added (30 nM final concentration), mixed five times and then incubated for 15 minutes at 30° C. 10 μL of MR121 substrate solution was added (1 μM final concentration), mixed 30 times and then incubated for 15 minutes at 30° C.

IC50 [1] [nM]	IC50 (human ATX) [nM]	Compound
6	7	NS(=O)(=O)c1ccc(C(=O)N2C[C@H]3CN(C(=O)OCc4ccc(OC(F)(F)F)cc4)C[C@]3(F)C2)c(F)c1 (relative stereo) [Example 2.00, trans-5-(2-Fluoro-4-sulfamoyl-benzoyl)-3a-fluoro-hexahydro-pyrrolo[3,4-c]pyrrole-2-carboxylic acid 4-trifluoromethoxy-benzyl ester]
9	5	NS(=O)(=O)c1ccc(C(=O)N2C[C@H]3CN(C(=O)/C=C/c4ccc(OC(F)(F)F)cc4)C[C@]3(F)C2)c(F)c1 (relative stereo) [Example 3.00, trans-4-[3a-Fluoro-2-[(E)-3-[4-(trifluoromethoxy)phenyl]prop-2-enoyl]-3,4,6,6a-tetrahydro-1H-pyrrolo[3,4-c]pyrrole-5-carbonyl]-3-fluorobenzenesulfonamide]
6	8	NS(=O)(=O)c1ccc(C(=O)N2C[C@@H]3CN(C(=O)c4cc(OCC5CCOCC5)nc(C5CC5)c4)C[C@@]3(F)C2)c(F)c1 (relative stereo) [Example 3.02, trans-4-[5-[2-cyclopropyl-6-(oxan-4-ylmethoxy)pyridine-4-carbonyl]-3a-fluoro-3,4,6,6a-tetrahydro-1H-pyrrolo[3,4-c]pyrrole-2-carbonyl]-3-fluorobenzenesulfonamide]
6	4	NS(=O)(=O)c1ccc(C(=O)N2C[C@H]3CN(C(=O)CCc4ccc(OC(F)(F)F)cc4)C[C@]3(F)C2)c(F)c1 (relative stereo) [Example 3.03, trans-4-[3a-fluoro-2-[3-[4-(trifluoromethoxy)phenyl]propanoyl]-3,4,6,6a-tetrahydro-1H-pyrrolo[3,4-c]pyrrole-5-carbonyl]-3-fluorobenzenesulfonamide]
18	13	CO[C@@]12CN(C(=O)OCc3ccc(OC(F)(F)F)cc3)C[C@H]1CN(C(=O)c1ccc(S(N)(=O)=O)cc1)C2 (single isomer, unassigned) [Example 4.01, (−)-trans-5-(4-sulfamoyl-benzoyl)-3a-methoxy-hexahydro-pyrrolo[3,4-c]pyrrole-2-carboxylic acid 4-trifluoromethoxy-benzyl ester]
10	8	NS(=O)(=O)c1ccc(C(=O)N2C[C@@H]3CN(C(=O)OCc4ccc(OC(F)(F)F)cc4)C[C@@]3(F)C2)cc1 (single isomer, unassigned) [Example 4.02, (−)-trans-5-(4-sulfamoyl-benzoyl)-3a-fluoro-hexahydro-pyrrolo[3,4-c]pyrrole-2-carboxylic acid 4-trifluoromethoxy-benzyl ester]

Continued, compound first:

Compound	IC50 [1] [nM]	IC50 (human ATX) [nM]
CO[C@]12CN(C(=O)OCc3ncc(C(F)(F)F)cc3NC(=O)C(C)(C)C)C[C@@H]1CN(C(=O)c1ccc(S(N)(=O)=O)cc1F)C2 (racemic) [Example 1.00, trans-5-(2-Fluoro-4-sulfamoyl-benzoyl)-3a-methoxy-hexahydro-pyrrolo[3,4-c]pyrrole-2-carboxylic acid 3-(2,2-dimethyl-propionylamino)-5-trifluoromethyl-pyridin-2-ylmethyl ester]	5	8
CO[C@]12CN(C(=O)OCc3ncc(C(F)(F)F)cc3NC(=O)C(C)(C)C)C[C@@H]1CN(C(=O)c1ccc(S(N)(=O)=O)cc1)C2 (racemic) [Example 1.03, trans-5-(4-sulfamoyl-benzoyl)-3a-methoxy-hexahydro-pyrrolo[3,4-c]pyrrole-2-carboxylic acid 3-(2,2-dimethyl-propionylamino)-5-trifluoromethyl-pyridin-2-ylmethyl ester]	–	6
NS(=O)(=O)c1ccc(C(=O)N2C[C@H]3CN(C(=O)OCc4ccc(OC(F)(F)F)cc4)C[C@]3(F)C2)cc1 (racemic) [Example 1.04, trans-5-(4-sulfamoyl-benzoyl)-3a-fluoro-hexahydro-pyrrolo[3,4-c]pyrrole-2-carboxylic acid 4-trifluoromethoxy-benzyl ester]	–	3
CO[C@]12CN(C(=O)OCc3ccc(OC(F)(F)F)cc3)C[C@@H]1CN(C(=O)c1ccc(S(N)(=O)=O)cc1)C2 (racemic) [Example 1.05, trans-5-(4-sulfamoyl-benzoyl)-3a-methoxy-hexahydro-pyrrolo[3,4-c]pyrrole-2-carboxylic acid 4-trifluoromethoxy-benzyl ester]	–	20
C[C@]12CN(C(=O)OCc3ccc(OC(F)(F)F)cc3)C[C@@H]1CN(C(=O)c1ccc(S(N)(=O)=O)cc1)C2 (racemic) [Example 1.06, trans-3a-methyl-5-(4-sulfamoyl-benzoyl)-hexahydro-pyrrolo[3,4-c]pyrrole-2-carboxylic acid 4-trifluoromethoxy-benzyl ester]	–	6
CO[C@]12CN(C(=O)CCc3ccc(OC(F)(F)F)cc3)C[C@@H]1CN(C(=O)c1ccc(S(N)(=O)=O)cc1F)C2 (relative stereo) [Example 1.01, trans-4-[3a-methoxy-2-[3-[4-(trifluoromethoxy)phenyl]propanoyl]-3,4,6,6a-tetrahydro-1H-pyrrolo[3,4-c]pyrrole-5-carbonyl]-3-fluorobenzenesulfonamide]	8	10
CO[C@@]12CN(C(=O)c3cc(OCC4CCOCC4)nc(C4CC4)c3)C[C@H]1CN(C(=O)c1ccc(S(N)(=O)=O)cc1F)C2 (relative stereo) [Example 1.02, trans-4-[5-[2-cyclopropyl-6-(oxan-4-ylmethoxy)pyridine-4-carbonyl]-3a-methoxy-3,4,6,6a-tetrahydro-1H-pyrrolo[3,4-c]pyrrole-2-carbonyl]-3-fluorobenzenesulfonamide]	10	6
CO[C@]12CN(C(=O)OCc3ncc(C(F)(F)F)cc3NC(=O)C(C)(C)C)C[C@@H]1CN(C(=O)c1ccc(S(N)(=O)=O)cn1)C2 (relative stereo) [Example 1.07, trans-5-(5-sulfamoylpyridine-2-carbonyl)-3a-methoxy-hexahydro-pyrrolo[3,4-c]pyrrole-2-carboxylic acid 3-(2,2-dimethyl-propionylamino)-5-trifluoromethyl-pyridin-2-ylmethyl ester]	13	6
CO[C@]12CN(C(=O)CCc3ccc(OC(F)(F)F)cc3)C[C@@H]1CN(C(=O)c1ccc(S(N)(=O)=O)cn1)C2 (relative stereo) [Example 1.08, trans-6-[3a-methoxy-2-[3-[4-(trifluoromethoxy)phenyl]propanoyl]-3,4,6,6a-tetrahydro-1H-pyrrolo[3,4-c]pyrrole-5-carbonyl]pyridine-3-sulfonamide]	18	17
CO[C@@]12CN(C(=O)c3cc(OCC4CCOCC4)nc(C4CC4)c3)C[C@H]1CN(C(=O)c1ccc(S(N)(=O)=O)cn1)C2 (relative stereo) [Example 1.09, trans-6-[5-[2-cyclopropyl-6-(oxan-4-ylmethoxy)pyridine-4-carbonyl]-3a-methoxy-3,4,6,6a-tetrahydro-1H-pyrrolo[3,4-c]pyrrole-2-carbonyl]pyridine-3-sulfonamide]	10	10
